Entries after “also recorded” stand apart in the source; their conditions may differ.
Columns and labels:
[1] = tested on: primary rat immature cortical neurons; assay: Neurotoxin-induced loss of viability of primary immature cortical neurons (LDH leakage); assay type: cell-based; details: glutamate 10 mM, 24 h; for protection against loss of neuronal viability by neurotoxins: L-homocysteic acid 1 mM, BSO 0.15 mM, BSO + arachidonic acid 0.05 mM, α-tocotrienol (nM) 5 min before
Description: Referring to FIG. 1, primary rat immature cortical neurons (A-C) or HT4 (D) were either treated or not with α-tocotrienol (as indicated) for 5 min and challenged with either glutamate (10 mM; A); L-homocysteic acid (1 mM; B); or buthionine sulfoximine (0.15 mM; BSO) for 24 h. […] Cells were counted at 12, 24 and 36 h after glutamate challenge.
(§1) First, we tested for the involvement of 12-LOX in the execution of glutamate-induced death in our model. We started by using the 12-LOX specific inhibitor baicalein or BL15. Referring to FIG. 3, HT4 neurons (A) were either treated or not with a-tocotrienol (250 nM) or […] (2.5 μM, 12-lipoxygenase inhibitor) for 5 min and then challenged with glutamate (10 mM). Cell viability was determined using propidium iodide (PI) exclusion flow cytometry assay. PI−=live; PI+=dead. Rat primary immature cortical neurons (B-D) were either treated or not with α-tocotrienol (100 nM) or BL15 (2.5 μM) for 5 min and challenged either with glutamate (10 mM; B); L-homocysteic acid (1 mM; C) or buthionine sulfoximine (0.15 mM; BSO; D) for 24 h. Arachidonic acid, 50 μM for 24h. BL15, Baicalein 5,6,7-trihydroxy-flavone.
Cell culture. Mouse hippocampal HT4 cells, were grown in Dulbecco's Modified Eagle Medium supplemented with 10% fetal calf serum, penicillin (100 U/ml) and streptomycin (100 μg/ml) at 37° C. in a humidified atmosphere containing 95% air and 5% CO2. HT4 cells were provided by Dr. D. E. Koshland Jr. (University of California at Berkeley) (Sen et al., 2000). Primary cortical neurons. Cells were isolated from the cerebral cortex of rat feti (Sprague Dawley; day 17 of gestation) or mouse feti (C57BL/6 mice, day 14 of gestation) as described (Murphy et al., 1990). For 12-LOX knockout studies, neurons were isolated from the feti of B6.129S2-Alox15^tm1Fun (Jackson Laboratory, […].). After isolation from the brain, cells were counted and seeded in culture plates at a density of 2-3×10^6 cells per 35 mm plate (Murphy et al., 1990). Cells were grown in Minimal Essential Medium (MEM) supplemented with 10% heat-inactivated fetal bovine serum, 40 μM cystine and antibiotics (100 μg/ml streptomycin, 100 units/ml penicillin, 0.25 μg/ml amphotericin). Cultures were maintained at 37° C. in 5% CO2 and 95% air in a humidified incubator. All experiments were carried out 24 h after plating.
Treatment with neurotoxic agents. Immediately before experiments, culture media was replaced with fresh medium supplemented with serum and antibiotics. Glutamate (10 mM) was added to the media as aqueous solution (Han et al., 1997a; Sen et al., 2000; Tirosh et al., 2000). […] Other agents used to induce death in neuronal cells have been described in the pertinent figure legends.
Vitamin E treatment. Stock solutions (10^3X of working concentration) of α-tocotrienol was prepared in ethanol. […]
Determination of cell viability. Viability of HT4 cells was determined using propidium iodide exclusion assay using the flow cytometer as described by us previously (Sen et al., 2000; Tirosh et al., 2000). Because primary neuronal cultures tend to aggregate during flow cytometry, the viability of these cells was assessed by measuring lactate dehydrogenase (LDH) leakage (Han et al., 1997a) from cells to media 24 h following glutamate treatment using in vitro toxicology assay kit from Sigma Chemical Co. (St. Louis, Mo., USA). […]

[2] = tested on: rat primary cortical neurons; assay: Imaging of glutamate-induced degeneration of rat primary cortical neurons (immunofluorescence, live cell imaging); assay type: cell-based; details: glutamate 10 mM, α-tocotrienol 250 nM or BL15 2.5 μM 5 min before
Description: Phase contrast images were collected once every 15 mins for 18 h from 8 h after glutamate treatment.
For immunofluorescence microscopy, primary cultures of rat cortical neurons were plated on 35 mm plates pre-coated with poly-L-lysine. After 24 h, cell were treated with α-tocotrienol or BL15 for 5 minutes and then challenged with glutamate or exposed to glutamate. After 24 h of glutamate exposure, cells were washed thrice in PBS, fixed for 10 minutes at room temperature in 4% paraformaldehyde, and permeabilized with PBS-T (PBS containing 0.2% Triton X-100) for 20 minutes at room temperature. Samples were then rinsed 3× with PBS-T and blocking (2% BSA in PBS-T) was done for 1 h at room temperature. After blocking, samples were incubated overnight at 4° C. with the primary antibody (anti-neurofilament 200 (1:100, Sigma St. Louis, Mo.) or neuronal class III α-tubulin (1:500, Covance Berkeley, Calif.)}. After washing with PBS (3×, 5 min each), the samples were incubated with Alexa Fluor 488 conjugated goat anti-mouse or anti-rabbit (Molecular Probes Eugene, Oreg.) secondary antibody for 45 minutes at room temperature. This was followed by three PBS washes, and mounting in aqueous medium. Fluorescent images were collected using a Zeiss Axiovert 200M microscope. Images were acquired using Axiovision 3.1.
For live cell imaging, primary cultures of rat cortical neurons were plated on 35 mm plates pre-coated with poly-L-lysine. […] Images were collected once every 15 minutes using a specialized phase contrast Zeiss optics suited for imaging cells growing in routine culture plates.

[3] = tested on: primary neurons; assay: Cellular glutathione (GSH) in glutamate-treated primary neurons (HPLC-coulometric); assay type: cell-based, rat; details: glutamate 10 mM; α-tocotrienol 100 nM or BL15 2.5 μM
Description: as §1, with “5,6,7-trihydroxy-flavone. […] B-E: †, lower compared to the corresponding control non-treated group; *, higher compared to the corresponding toxin-treated group. P<0.05.” for “5,6,7-trihydroxy-flavone.”
Glutathione assay. Glutathione (GSH) was detected using a HPLC-coulometric electrode array detector (Coularray Detector—model 5600 with 12 channels; ESA Inc., Chelmsford, Mass.). […] Glutathione was detected at channels set at following potentials: I) 600 mV, II) 700 mV; and II) 800 mV. Signals from channel set at 800 mV were used for quantification (Sen et al., 2002).

[4] = tested on: HT4 neurons; details: nM concentrations; Sen et al., 2000; cited from earlier work

In the case of `CC(C)=CCC/C(C)=C/CC/C(C)=C/CC[C@]1(C)CCc2c(C)c(O)c(C)c(C)c2O1` [α-tocotrienol], the “protection against glutamate-induced death of primary neurons” value ([1]; α-tocotrienol 100 nM or BL15 2.5 μM 5 min before) is reported as “protected neurons against glutamate challenge”, the “protection against loss of neuronal viability by neurotoxins” value [1] is reported as “protects” and the “protection against loss of neuronal viability by neurotoxins” value ([1]; listed as α-Tocotrienol) is reported as “total protection”. For the same molecule, the “glutamate-induced degeneration of the neural network and neuronal growth” value [2] was “resisted degeneration and continued to grow; also recorded: prevents glutamate-induced neuro-degeneration; also recorded: protection”, the “glutamate-induced degeneration of the neural network and neuronal growth” value ([2]; listed as α-Tocotrienol) was “insensitive to glutamate” and the “cellular glutathione (GSH) in protected glutamate-treated primary neurons” value [3] was “loss of cellular glutathione”. The “protection of HT4 neurons from glutamate-induced death (previously reported)” value [4] was “protects”.
